# Patent US10570179B2, “Substituted urea depsipeptide analogs as activators of the CLPP endopeptidase” (priority 2016, dated 2020)
# Numbered stars: 1 amine (or outer) side, 2 acyl side, 3 side chain; on linkers, the order of the positions; unused ones are H or OH. Bridge positions count the residues as written; N and C are the ends. Square brackets hold non-standard residues; d marks the D form. Peptide text beside a SMILES is read from it. * marks the point of attachment. Phe(3-CF3) = N[C@@H](Cc1cccc(C(F)(F)F)c1)C(=O)O; Piperazine(2S-CO,4-Me) = CN1CCN[C@H](C(=O)O)C1; Phe(3-Me) = Cc1cccc(C[C@H](N)C(=O)O)c1; NH(4-Cl-2-F-phenyl) = Fc1cc(Cl)ccc1N*; Pro(4R-Me) = C[C@H]1CN[C@H](C(=O)O)C1; Hyp = O=C(O)[C@@H]1C[C@@H](O)CN1; aThr = C[C@H](O)[C@H](N)C(=O)O; Pip = O=C(O)[C@@H]1CCCCN1; CO = O=C([*:1])[*:2]
# How the values were obtained:
# [1] = Plasma stability assay; assay type: in vitro ADME, human; settings: human, 10 μM
# Protocol: (§1) The plasma stability property of early drug discovery compounds can influence the in vivo efficacy of the test compounds/drugs. Human and/or mouse plasma degradation is determined using multiple time points to monitor the rate of disappearance of the parent compound during incubation.
# (§2) Sample preparation for plasma stability was modified from Di et al. (2005) Int. J. Pharm. 297(1-2): 110-119. A set of incubation times of 0, 3, 24, and 48 hour were used. DMSO stock solutions of test compounds were prepared at 10 mM concentration. 1.8 μL of each test compound was each added directly to 1.8 mL of human/mouse plasma to get the final concentration of 10 μM. This compound/matrix was mixed and 70 μL was transferred to 8 time points plates (each in triplicate wells). For the Time 0 plate, 210 μL of cold acetonitrile with internal standard (4 μg/mL warfarin) was added to each well and no incubation needed. For other seven time points' plate, the plate was incubated at 37° C. for required time, followed by quenching of the reaction by adding 210 μL of cold acetonitrile with internal standard (4 μg/ml warfarin) to each well. All of the plates were sealed and mixed well at 600 rpm for 10 min and were centrifuged at 4000 rpm for 20 min. The supernatants (120 μL) were transferred to analytical plates for analysis by LCMS. Conditions for Waters ACQUITY-UPLC-MS-UV system was described separately. The plasma stability was evaluated via the half-life from least-squares fit of the multiple time points based on first-order kinetics.
# [2] = Plasma stability assay; assay type: in vitro ADME, mouse; settings: mouse, 10 μM
# Protocol: as §1, §2
# [3] = Microsomal metabolic stability; assay type: in vitro ADME, human; settings: human, pH 7.4
# Protocol: (§3) Compounds were initially prepared by dissolving them into DMSO at a final concentration of 10 mM. NADPH regenerating solutions A and B and mouse liver microsomes (CD-1) were obtained from BD Gentest (Woburn, Mass.). Ninety-six well deep well plates were obtained from MidWest Scientific Inc (Valley Park, Mo.).
# (§4) Sample preparation for microsomal stability was modified from methods of Di, L., et al., Int J Pharm. 2005 Jun. 13; 297(1-2):110-9. A set of incubation times of 0, 15, 30, 60, 120, and 240 minutes were used. Mouse liver microsomal solutions were prepared by adding 58 μL of concentrated human or mouse liver microsomes (20 mg/mL protein concentration) to 1.756 mL of 0.1 M potassium phosphate buffer (pH 7.4) and 5 μL of 0.5 M EDTA to make a 0.6381 mg/mL (protein) microsomal solution. NADPH regenerating agent contained 113 μL of NADPH A, 23 μL of NADPH B, and 315 μL of 0.1 M potassium phosphate buffer (pH 7.4). The diluted test compound solutions (2 μL) were each added directly to a 1.79 mL of liver microsomal solution. This solution was mixed and 90 μL was transferred to 6 time points plates (each in triplicate wells). For the time 0 plate, 225 μL of cold acetonitrile with internal standard ([…] warfarin) was added to each well, followed by addition of NADPH regenerating agent (22.5 μL) and no incubation. For other five time points' plate, NADPH regenerating agent (22.5 μL) was added to each well to initiate the reaction. The plates were incubated at 37° C. for the required time, followed by quenching of the reaction by adding 225 μL of cold acetonitrile with internal standard (4 μg/ml warfarin). All of the plates were sealed and mixed well at 600 rpm for 10 minutes followed by centrifugation at 4000 rpm for 20 minutes. The supernatants (120 μL) were transferred to analytical plates for analysis by LCMS. LCMS conditions were described in the materials and instrumentation section above. The metabolic stability is evaluated via the half-life from least-squares fit of the multiple time points based on first-order kinetics.
# [4] = Microsomal metabolic stability; assay type: in vitro ADME, mouse; settings: CD-1, mouse, pH 7.4
# Protocol: as §3, §4
# [5] = molecular target: T1, S. aureus ClpP (Sa-ClpP) (Staphylococcus aureus, UniProt Q2G036); assay: Casein-BODIPY digestion assay (ClpP activation); assay type: biochemical
# T1 construct: made in house; host or cells: E. coli BL21 (DE3)
# T1 sequence (Q2G036 whole entry): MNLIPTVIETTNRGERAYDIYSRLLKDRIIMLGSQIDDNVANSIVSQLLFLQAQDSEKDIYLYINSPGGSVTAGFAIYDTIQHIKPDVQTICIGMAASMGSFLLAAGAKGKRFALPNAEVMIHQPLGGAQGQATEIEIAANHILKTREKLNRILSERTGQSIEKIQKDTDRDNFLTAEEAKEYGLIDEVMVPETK
SMILES,Human [1],Mouse [2],Human [3],Mouse [4],EC50 [5]
"C[C@@H]1C[C@H]2C(=O)OC[C@H](NC(=O)[C@H](Cc3cccc(C(F)(F)F)c3)NC(=O)Nc3ccc(Cl)cc3F)C(=O)N3CCC[C@H]3C(=O)N3CCN(C)C[C@H]3C(=O)N[C@@H](C)C(=O)N2C1 [Compound 18, (S)-2-(3-(4-CHLORO-2-FLUOROPHENYL)UREIDO)-3-(3-(TRIFLUOROMETHYL)PHENYL)-N-((6AS,12S,15AS,17R,21S,23AS)-2,17,21-TRIMETHYL-6,11,15,20,23-PENTAOXOOCTADECAHYDRO-2H,6H,11H,15H-PYRAZINO[2,1-I]DIPYRROLO[2,1-C:2′,1′-L][1]OXA[4,7,10,13]TETRAAZACYCLOHEXADECIN-12-YL)PROPANAMIDE] ({NH(4-Cl-2-F-phenyl)-CO}-[Phe(3-CF3)]SP[Piperazine(2S-CO,4-Me)]A[Pro(4R-Me)]; ester 2-C)",46.62 h,66.31 h,0.75 ± 0.11 h,1.88 ± 0.12 h,1750 ± 100 nM
"Cc1cccc(C[C@H](NC(=O)Nc2ccc(Cl)cc2F)C(=O)N[C@@H]2C(=O)N3C[C@H](O)C[C@H]3C(=O)N3CCCC[C@H]3C(=O)N[C@@H](C)C(=O)N3C[C@H](C)C[C@H]3C(=O)O[C@H]2C)c1 [Compound 6, (S)-2-(3-(4-CHLORO-2-FLUOROPHENYL)UREIDO)-N-((2R,6S,8AS,14AS,16R,20S,21S,23AS)-16-HYDROXY-2,6,21-TRIMETHYL-5,8,14,19,23-PENTAOXOOCTADECAHYDRO-1H,5H,14H,19H-PYRIDO[2,1-I]DIPYRROLO[2,1-C:2′,1′-L][1]OXA[4,7,10,13]TETRAAZACYCLOHEXADECIN-20-YL)-3-(M-TOLYL)PROPANAMIDE] ({NH(4-Cl-2-F-phenyl)-CO}-[Phe(3-Me)][aThr][Hyp][Pip]A[Pro(4R-Me)]; ester 2-C)",>50 h,>50 h,4.83 ± 1.5 h,4.61 ± 1.2 h,230 ± 20 nM
"Cc1cccc(C[C@H](NC(=O)Nc2ccc(Cl)cc2F)C(=O)N[C@H]2COC(=O)[C@@H]3C[C@@H](C)CN3C(=O)[C@H](C)NC(=O)[C@@H]3CCCCN3C(=O)[C@@H]3CCCN3C2=O)c1 [Compound 8, (S)-2-(3-(4-CHLORO-2-FLUOROPHENYL)UREIDO)-N-((2R,6S,8AS,14AS,20S,23AS)-2,6-DIMETHYL-5,8,14,19,23-PENTAOXOOCTADECAHYDRO-1H,5H,14H,19H-PYRIDO[2,1-I]DIPYRROLO[2,1-C:2′,1′-L][1]OXA[4,7,10,13]TETRAAZACYCLOHEXADECIN-20-YL)-3-(M-TOLYL)PROPANAMIDE]",34.37 h,>50 h,0.89 ± 0.13 h,1.22 ± 0.13 h,280 ± 20 nM
"Cc1cccc(C[C@H](NC(=O)Nc2ccc(Cl)cc2F)C(=O)N[C@@H]2C(=O)N3CCC[C@H]3C(=O)N3CCN(C)C[C@H]3C(=O)N[C@@H](C)C(=O)N3C[C@H](C)C[C@H]3C(=O)O[C@H]2C)c1 [Compound 11, (S)-2-(3-(4-CHLORO-2-FLUOROPHENYL)UREIDO)-N-((6AS,12S,13S,15AS,17R,21S,23AS)-2,13,17,21-TETRAMETHYL-6,11,15,20,23-PENTAOXOOCTADECAHYDRO-2H,6H,11H,15H-PYRAZINO[2,1-I]DIPYRROLO[2,1-C:2′,1′-L][1]OXA[4,7,10,13]TETRAAZACYCLOHEXADECIN-12-YL)-3-(M-TOLYL)PROPANAMIDE] ({NH(4-Cl-2-F-phenyl)-CO}-[Phe(3-Me)][aThr]P[Piperazine(2S-CO,4-Me)]A[Pro(4R-Me)]; ester 2-C)",44.21 h,36.62 h,0.91 ± 0.10 h,0.67 ± 0.07 h,290 ± 10 nM
